Read-outs that look alike come from different tables or passages of the source.
Experiments:
[1] = target: GSK3b (GST-full length GSK3b) (Homo sapiens (Human), UniProt P49841); test: GSK3b TR-FRET kinase assay; format: biochemical
How it was run: (§1)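 1 nM GST-GSK3α/β + cpd, 30 min preinc; add 200 nM biotin-pS645 GS(631-650) peptide + ATP (α 4 μM / β 2 μM, or 1 mM); 100 min RT, 50 mM Tris pH 7.5, 20 mM MgCl2, 1% DMSO; EDTA stop; SA-d2/Tb-pSer641 Ab 60 min; 665/615 ratio → IC50.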

[2] = target: GSK3α (GST-full length GSK3α) (Homo sapiens (Human), UniProt P49840); test: GSK3α TR-FRET kinase assay; format: biochemical
Chain of GSK3α (GST-full length GSK3α) (P49840 whole entry): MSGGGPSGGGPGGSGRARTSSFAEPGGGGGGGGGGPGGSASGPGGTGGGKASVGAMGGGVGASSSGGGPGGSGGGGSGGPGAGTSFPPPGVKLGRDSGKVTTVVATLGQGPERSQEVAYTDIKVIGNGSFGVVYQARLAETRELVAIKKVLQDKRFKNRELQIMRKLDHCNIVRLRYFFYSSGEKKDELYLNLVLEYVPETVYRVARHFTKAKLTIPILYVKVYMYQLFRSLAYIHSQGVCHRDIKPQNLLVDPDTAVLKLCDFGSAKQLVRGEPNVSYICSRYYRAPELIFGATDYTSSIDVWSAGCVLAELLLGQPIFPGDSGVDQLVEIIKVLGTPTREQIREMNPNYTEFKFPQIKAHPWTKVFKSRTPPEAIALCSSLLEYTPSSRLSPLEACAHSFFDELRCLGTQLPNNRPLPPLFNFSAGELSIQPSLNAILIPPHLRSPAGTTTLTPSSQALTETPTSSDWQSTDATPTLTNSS
How it was run: as §1

[3] = 1 nM GSK3b, 2 μM ATP, 30 minute preincubation, Table 16, read-out: GSK3-B TR-FRET BIOCHEMICAL (TR-FRET), IC50
[4] = 1 nM GSK3α, 4 μM ATP, 30 minute preincubation, Table 16, read-out: GSK3-A TR-FRET BIOCHEMICAL (TR-FRET), IC50
[5] = read-out: GSK3-B (TR-FRET 1 mM ATP), GMean, IC50, 1 mM ATP, geometric mean
[6] = read-out: GSK3-A (TR-FRET 1 mM ATP), GMean, IC50, 1 mM ATP, geometric mean
[7] = 1 nM GSK3b, 2 μM ATP, 30 minute preincubation, Table 16, read-out: GSK3-B TR-FRET BIOCHEMICAL (TR-FRET)
[8] = 1 nM GSK3α, 4 μM ATP, 30 minute preincubation, Table 16, read-out: GSK3-A TR-FRET BIOCHEMICAL (TR-FRET)

Chain of GSK3b (GST-full length GSK3b) (P49841 whole entry): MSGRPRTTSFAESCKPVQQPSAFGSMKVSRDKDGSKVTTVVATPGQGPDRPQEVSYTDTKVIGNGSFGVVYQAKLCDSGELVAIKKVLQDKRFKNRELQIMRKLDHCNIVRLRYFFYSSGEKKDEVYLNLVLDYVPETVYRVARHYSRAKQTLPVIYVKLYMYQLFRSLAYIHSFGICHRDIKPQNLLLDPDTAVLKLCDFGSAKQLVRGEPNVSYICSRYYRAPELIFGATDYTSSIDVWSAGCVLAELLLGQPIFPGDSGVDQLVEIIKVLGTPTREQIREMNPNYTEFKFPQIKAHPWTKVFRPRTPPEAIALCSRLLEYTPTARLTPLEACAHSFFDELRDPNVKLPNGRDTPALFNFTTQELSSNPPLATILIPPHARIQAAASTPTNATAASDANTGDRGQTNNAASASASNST

Structure (SMILES)	IC50 [1, 3] [nM]	IC50 [2, 4] [nM]	IC50 [1, 5] [nM]	IC50 [2, 6] [nM]	IC50 [1, 7] [nM]	IC50 [2, 8] [nM]
CC[C@@]1(c2cccc(-c3cc(C)nnc3C)c2)C2=C(CC(C)(C)NC2=O)Nc2n[nH]cc21 [Compound 949334]	> 5000	1000 to 5000	–	–	–	–
CC[C@@]1(c2cccc(Oc3ncccn3)c2)C2=C(CC(C)(C)NC2=O)Nc2n[nH]cc21 [Compound 949335]	> 5000	> 5000	–	–	–	–
CCC1(c2cccc(-c3cn(C)nc3C)c2)C2=C(CC(C)(C)NC2=O)Nc2n[nH]c(Cl)c21 (centres unmarked) [Compound 949336]	≤ 100	≤ 100	100 to 1000	≤ 100	–	–
CC[C@@]1(c2cccc(OC)c2)C2=C(CC(C)(C)NC2=O)Nc2n[nH]c(C)c21 [Compound 949337]	1000 to 5000	100 to 1000	–	–	–	–
CCC1(c2cccc(C(F)(F)F)c2)C2=C(CC(C)N(c3cnc(OC)nc3)C2=O)Nc2n[nH]cc21 (centres unmarked) [Compound 949351]	100 to 1000	≤ 100	–	–	–	–
CCC1(c2cccc(C(F)(F)F)c2)C2=C(CC(C)N(c3cnc(OC)nc3)C2=O)Nc2n[nH]cc21 (centres unmarked) [Compound 949352]	≤ 100	≤ 100	1000 to 5000	100 to 1000	–	–
CC[C@@]1(c2cccc(C(F)(F)F)c2)C2=C(C[C@H](C)N(c3cnc(OC)nc3)C2=O)Nc2n[nH]cc21 [Compound 949354]	1000 to 5000	100 to 1000	–	–	–	–
CC[C@@]1(c2cccc(-c3ccnc(C(F)F)c3)c2)C2=C(CC(C)(C)NC2=O)Nc2n[nH]cc21 [Compound 949388]	> 5000	1000 to 5000	–	–	–	–
CCC1(c2cccc(-c3cnn4cccnc34)c2)C2=C(CC(C)(C)NC2=O)Nc2n[nH]cc21 (centres unmarked) [Compound 949389]	> 5000	1000 to 5000	–	–	–	–
CCc1cccc(C2(CC)C3=C(CC(C)(C)CC3=O)Nc3n[nH]cc32)c1 (centres unmarked) [Compound 949391]	–	–	–	–	> 5000	1000 to 5000
CC[C@@]1(c2cccc(-c3c(C)ccc4c(C)cccc34)c2)C2=C(CC(C)(C)NC2=O)Nc2n[nH]c(F)c21 [Compound 949392]	> 5000	1000 to 5000	–	–	–	–
CCC1(c2cccc(-c3cnn(C4CC4(F)F)c3)c2)C2=C(CC(C)(C)NC2=O)Nc2n[nH]cc21 (centres unmarked) [Compound 949393]	> 5000	1000 to 5000	–	–	–	–
CC[C@]1(c2cccc(-c3ccnn3C)c2)C2=C(CC3(CCS(=O)(=O)CC3)NC2=O)Nc2n[nH]cc21 [Compound 949394]	100 to 1000	≤ 100	–	–	–	–
CCC1(c2cccc(-c3cnn(C)c3F)c2)C2=C(CC(C)(C)NC2=O)Nc2n[nH]cc21 (centres unmarked) [Compound 949395]	> 5000	1000 to 5000	–	–	–	–
CC[C@@]1(c2cccc(-c3ccnn3-c3ccc(F)cc3)c2)C2=C(CC(C)(C)NC2=O)Nc2n[nH]cc21 [Compound 949396]	> 5000	> 5000	–	–	–	–
CCC1(c2cccc(C3CCCC3)c2)C2=C(CC(C)(C)CC2=O)Nc2n[nH]cc21 (centres unmarked) [Compound 949397]	–	–	1000 to 5000	100 to 1000	–	–
CCC1(c2cccc(-c3c(C)cnc4ccccc34)c2)C2=C(CC(C)(C)NC2=O)Nc2n[nH]cc21 (centres unmarked) [Compound 949398]	100 to 1000	≤ 100	–	–	–	–
CC[C@]1(c2cccc(C3CCCC3)c2)C2=C(CC(C)(C)CC2=O)Nc2n[nH]cc21 [Compound 949399]	> 5000	1000 to 5000	–	–	–	–
CC[C@@]1(c2cccc(-c3ccnn3C)c2)C2=C(CC3(CCS(=O)(=O)CC3)NC2=O)Nc2n[nH]cc21 [Compound 949400]	> 5000	1000 to 5000	–	–	–	–
CC[C@]1(c2cccc(-c3ccnc(C)c3)c2)C2=C(CC(C)(C)NC2=O)Nc2n[nH]c(Cl)c21 [Compound 949421]	> 5000	100 to 1000	–	–	–	–
CC[C@@]1(c2cccc(-c3ccnc(C)c3)c2)C2=C(CC(C)(C)NC2=O)Nc2n[nH]c(Cl)c21 [Compound 949422]	≤ 100	≤ 100	1000 to 5000	100 to 1000	–	–

Structure (SMILES)	IC50 [1, 3] [nM]	IC50 [2, 4] [nM]	IC50 [1, 5] [nM]	IC50 [2, 6] [nM]	IC50 [1, 7] [nM]	IC50 [2, 8] [nM]
CC[C@@]1(c2cccc(-c3cc(C4CCCC4)nn3C)c2)C2=C(CC(C)(C)NC2=O)Nc2n[nH]cc21 [Compound 949509]	> 5000	> 5000	–	–	–	–
CC[C@@]1(c2cccc(-c3cnn(CCN4CCCC4)c3)c2)C2=C(CC(C)(C)NC2=O)Nc2n[nH]cc21 [Compound 949510]	> 5000	> 5000	–	–	–	–
CC[C@@]1(c2cccc(-c3cnn(Cc4ccc(C(F)(F)F)cc4)c3)c2)C2=C(CC(C)(C)NC2=O)Nc2n[nH]cc21 [Compound 949511]	> 5000	> 5000	–	–	–	–
CC[C@@]1(c2cccc(-c3cnn(Cc4cccc(C(F)(F)F)c4)c3)c2)C2=C(CC(C)(C)NC2=O)Nc2n[nH]cc21 [Compound 949513]	> 5000	> 5000	–	–	–	–
CCC1(c2cccc(C3CCC3)c2)C2=C(CC(C)(C)CC2=O)Nc2n[nH]cc21 (centres unmarked) [Compound 949514]	> 5000	1000 to 5000	–	–	–	–
CC[C@@]1(c2cccc(-c3cnn(-c4cccnc4)c3)c2)C2=C(CC(C)(C)NC2=O)Nc2n[nH]cc21 [Compound 949515]	> 5000	> 5000	–	–	–	–
CC[C@@]1(c2cccc(-c3ccncc3C(F)(F)F)c2)C2=C(CC(C)(C)NC2=O)Nc2n[nH]cc21 [Compound 949516]	> 5000	1000 to 5000	–	–	–	–
CC[C@@]1(c2cccc(-c3ccnn3C3CC3(F)F)c2)C2=C(CC(C)(C)NC2=O)Nc2n[nH]cc21 (some centres unmarked) [Compound 949518]	> 5000	100 to 1000	–	–	–	–
CC[C@@]1(c2cccc(-c3cnn(-c4ccccc4)c3F)c2)C2=C(CC(C)(C)NC2=O)Nc2n[nH]cc21 [Compound 949519]	> 5000	> 5000	–	–	–	–
CC[C@]1(c2cccc(-c3ccnc(C)c3)c2)C2=C(CC3(CCC3)NC2=O)Nc2n[nH]cc21 [Compound 949520]	100 to 1000	≤ 100	–	–	–	–
CC[C@@]1(c2cccc(C3CCC3)c2)C2=C(CC(C)(C)CC2=O)Nc2n[nH]cc21 [Compound 949521]	≤ 100	≤ 100	1000 to 5000	100 to 1000	–	–
CC[C@@]1(c2cccc(C(F)(F)F)c2)C2=C(CCN(CCOC)C2=O)Nc2n[nH]cc21 [Compound 949599]	100 to 1000	100 to 1000	–	–	–	–
CC[C@]1(c2cccc(C(F)(F)F)c2)C2=C(CCN(CCOC)C2=O)Nc2n[nH]cc21 [Compound 949600]	> 5000	> 5000	–	–	–	–
CCC1(c2cccc(C(F)(F)F)c2)C2=C(CCC2=O)Nc2n[nH]cc21 (centres unmarked) [Compound 949639]	100 to 1000	100 to 1000	–	–	–	–
CC1CCC12C1=C(CC(C)(C)CC1=O)Nc1n[nH]cc12 (centres unmarked) [Compound 949640]	–	–	–	–	1000 to 5000	100 to 1000
CCC1(c2cccc(C(F)(F)F)c2)C2=C(CCN(c3cn(C)nc3C)C2=O)Nc2n[nH]cc21 (centres unmarked) [Compound 949641]	> 5000	> 5000	–	–	–	–
CC[C@]1(c2cccc(-c3ccncc3F)c2)C2=C(CC(C)(C)NC2=O)Nc2n[nH]c(F)c21 [Compound 949643]	> 5000	> 5000	–	–	–	–
CC[C@]1(c2cccc(-c3cc(C)ncc3F)c2)C2=C(CC(C)(C)NC2=O)Nc2n[nH]c(C(F)(F)F)c21 [Compound 949644]	1000 to 5000	100 to 1000	–	–	–	–
CC[C@@]1(c2cccc(C(C)C)c2)C2=C(CC(C)(C)NC2=O)Nc2n[nH]c(C)c21 [Compound 949646]	> 5000	> 5000	–	–	–	–
CC[C@@]1(c2cccc(N(C)c3ncccn3)c2)C2=C(CC(C)(C)NC2=O)Nc2n[nH]c(F)c21 [Compound 949648]	≤ 100	≤ 100	1000 to 5000	≤ 100	–	–

— patent publication US20250313563A1, “GLYCOGEN SYNTHASE KINASE 3 INHIBITORS AND USES THEREOF” (The Broad Institute, Inc., priority 2022, published 2025)
